Test results from PubChem BioAssay (NCI).
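Method: 48-hour compound exposure of cells in 96-well plates, five concentrations, linear interpolation of endpoints. The concentration for full growth arrest is given as TGI.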

Experiments:
Assay in all cases: NCI-60 cell line screen, 48 h
[1] = test system: RPMI-8226 leukemia
[2] = test system: A498 renal
[3] = test system: IGROV1 ovarian
[4] = test system: RXF 393 renal
[5] = test system: U251 CNS
[6] = test system: K-562 leukemia
[7] = test system: HCT-116 colon
[8] = test system: NCI-H460 lung
[9] = test system: HT29 colon
[10] = test system: UACC-257 melanoma
[11] = test system: NCI/ADR-RES ovarian
[12] = test system: KM12 colon
[13] = test system: ACHN renal
[14] = test system: PC-3 prostate
[15] = test system: M14 melanoma
[16] = test system: OVCAR-5 ovarian
[17] = test system: HS 578T breast
[18] = test system: SF-268 CNS
[19] = test system: SW-620 colon
[20] = test system: HOP-92 NSCLC
[21] = test system: SK-MEL-28 melanoma
[22] = test system: CCRF-CEM leukemia
[23] = test system: MCF7 breast
[24] = test system: NCI-H522 lung
[25] = test system: UACC-62 melanoma
[26] = test system: SK-MEL-2 melanoma
[27] = test system: COLO 205 colon
[28] = test system: A549 NSCLC
[29] = test system: NCI-H226 lung
[30] = test system: OVCAR-4 ovarian
[31] = test system: 786-0 renal
[32] = test system: SK-OV-3 ovarian
[33] = test system: NCI-H23 lung
[34] = test system: MDA-MB-435
[35] = test system: HCC-2998 colon
[36] = test system: MOLT-4 leukemia
[37] = test system: BT-549 breast
[38] = test system: HOP-62 NSCLC
[39] = test system: CAKI-1 renal
[40] = test system: MDA-MB-231 breast
[41] = test system: SNB-19 CNS
[42] = test system: OVCAR-8 ovarian
[43] = test system: EKVX NSCLC
[44] = test system: UO-31 renal
[45] = test system: T-47D breast
[46] = test system: TK-10 renal
[47] = test system: SK-MEL-5 melanoma
[48] = test system: DU-145 prostate
[49] = test system: SNB-75 CNS
[50] = test system: SN12C renal
[51] = test system: HCT-15 colon
[52] = test system: OVCAR-3 ovarian
[53] = test system: SF-295 CNS
[54] = test system: SF-539 CNS
[55] = test system: LOX IMVI melanoma
[56] = test system: MALME-3M melanoma
[57] = test system: SR leukemia

COc1ccc(OC)c(C(Cc2ccnc3ccccc23)Cc2ccnc3ccccc23)c1
TGI [1]: > 10 µM
TGI [2]: > 10 µM
TGI [3]: > 10 µM
TGI [4]: > 10 µM
TGI [5]: > 10 µM
TGI [6]: > 10 µM
TGI [7]: > 10 µM
TGI [8]: > 10 µM
TGI [9]: > 10 µM
TGI [10]: > 10 µM
TGI [11]: > 10 µM
TGI [12]: > 10 µM
TGI [13]: > 10 µM
TGI [14]: > 10 µM
TGI [15]: > 10 µM
TGI [16]: > 10 µM
TGI [17]: > 10 µM
TGI [18]: > 10 µM
TGI [19]: > 10 µM
TGI [20]: > 10 µM
TGI [21]: > 10 µM
TGI [22]: > 10 µM
TGI [23]: > 10 µM
TGI [24]: > 10 µM
TGI [25]: > 10 µM
TGI [26]: > 10 µM
TGI [27]: > 10 µM
TGI [28]: > 10 µM
TGI [29]: > 10 µM
TGI [30]: > 10 µM
TGI [31]: > 10 µM
TGI [32]: > 10 µM
TGI [33]: > 10 µM
TGI [34]: > 10 µM
TGI [35]: > 10 µM
TGI [36]: > 10 µM
TGI [37]: > 10 µM
TGI [38]: > 10 µM
TGI [39]: > 10 µM
TGI [40]: > 10 µM
TGI [41]: > 10 µM
TGI [42]: > 10 µM
TGI [43]: > 10 µM
TGI [44]: > 10 µM
TGI [45]: > 10 µM
TGI [46]: > 10 µM
TGI [47]: > 10 µM
TGI [48]: > 10 µM
TGI [49]: > 10 µM
TGI [50]: > 10 µM
TGI [51]: > 10 µM
TGI [52]: > 10 µM
TGI [53]: > 10 µM
TGI [54]: > 10 µM
TGI [55]: > 10 µM

NCCSc1nc(-c2ccccc2)c(-c2ccccc2)o1
TGI [1]: > 100 µM
TGI [2]: > 100 µM
TGI [3]: > 100 µM
TGI [4]: > 100 µM
TGI [5]: > 100 µM
TGI [6]: > 100 µM
TGI [7]: > 100 µM
TGI [8]: > 100 µM
TGI [9]: > 100 µM
TGI [56]: > 100 µM
TGI [10]: > 100 µM
TGI [11]: > 100 µM
TGI [12]: > 100 µM
TGI [13]: > 100 µM
TGI [14]: > 100 µM
TGI [15]: > 100 µM
TGI [16]: > 100 µM
TGI [17]: > 100 µM
TGI [18]: > 100 µM
TGI [19]: > 100 µM
TGI [20]: > 100 µM
TGI [21]: > 100 µM
TGI [23]: > 100 µM
TGI [24]: > 100 µM
TGI [25]: > 100 µM
TGI [26]: > 100 µM
TGI [27]: > 100 µM
TGI [28]: > 100 µM
TGI [29]: > 100 µM
TGI [30]: > 100 µM
TGI [31]: > 100 µM
TGI [32]: > 100 µM
TGI [33]: > 100 µM
TGI [34]: > 100 µM
TGI [37]: > 100 µM
TGI [38]: > 100 µM
TGI [39]: > 100 µM
TGI [40]: > 100 µM
TGI [41]: > 100 µM
TGI [42]: > 100 µM
TGI [43]: > 100 µM
TGI [44]: > 100 µM
TGI [45]: > 100 µM
TGI [46]: > 100 µM
TGI [47]: > 100 µM
TGI [48]: > 100 µM
TGI [49]: 61.4 µM
TGI [57]: > 100 µM
TGI [50]: > 100 µM
TGI [51]: > 100 µM
TGI [52]: > 100 µM
TGI [53]: > 100 µM
TGI [54]: > 100 µM
TGI [55]: > 100 µM

Cc1ccccc1N/C(=C(/C(Cl)=C(Cl)Cl)[N+](=O)[O-])n1nnc2ccccc21
TGI [1]: > 100 µM
TGI [2]: 40.4 µM
TGI [5]: 29.9 µM
TGI [6]: > 100 µM
TGI [7]: > 100 µM
TGI [8]: 28.5 µM
TGI [9]: 35.5 µM
TGI [56]: 27.9 µM
TGI [10]: > 100 µM
TGI [11]: 49.5 µM
TGI [12]: 29.4 µM
TGI [13]: > 100 µM
TGI [14]: 80.7 µM
TGI [15]: 64.9 µM
TGI [16]: 33.6 µM
TGI [17]: 27.1 µM
TGI [18]: 30.8 µM
TGI [19]: 29.4 µM
TGI [21]: 30.9 µM
TGI [22]: > 100 µM
TGI [23]: 86.5 µM
TGI [25]: 71.9 µM
TGI [26]: 33 µM
TGI [27]: 29.1 µM
TGI [28]: > 100 µM
TGI [29]: 35.3 µM
TGI [30]: 34 µM
TGI [31]: > 100 µM
TGI [32]: 40.7 µM
TGI [33]: 33.3 µM
TGI [34]: 30.1 µM
TGI [35]: 35.8 µM
TGI [36]: > 100 µM
TGI [37]: 27.5 µM
TGI [38]: 30.6 µM
TGI [39]: 34.9 µM
TGI [40]: 58.1 µM
TGI [41]: 46.8 µM
TGI [43]: 40.9 µM
TGI [44]: 31.8 µM
TGI [45]: 58 µM
TGI [48]: 62.2 µM
TGI [49]: 34.2 µM
TGI [50]: 31.1 µM
TGI [51]: 31.6 µM
TGI [52]: 30.8 µM
TGI [53]: 28.8 µM
TGI [54]: 39.1 µM
